Where two headings read alike, the source gives them in different places.
Tests used:
[1] = test system: fibrin-induced microglia activation; experiment: Image-based assay of fibrin-induced microglia activation (HTS and dose response); type: cell-based, rat; details: for inhibition at 10 µM: Rattus norvegicus, Microglia, read-out: Fibrin % inhibition
primary rat microglia [2] = experiment: Cell toxicity (dead cells, size <150 μm2) in coated fibrin (cFib) assay;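 note: share of dead cells sized under 150 µm2 at 10 µM in fibrin-stimulated microglia HTS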
[3] = test system: fibrin- and LPS-induced microglia activation; experiment: cells; type: cell-based, rat
primary rat microglia [4] = experiment: Cell toxicity (dead cells, size <150 μm2) in LPS assay
[5] = test system: LPS-induced microglia activation; experiment: Image-based assay of LPS-induced microglia activation (HTS and dose response); type: cell-based, rat; details: for inhibition at 10 µM: Rattus norvegicus, Microglia, read-out: LPS % inhibition
[6] = primary microglia HTS, fibrin stimulation, activation = cell size >800 μm2
[7] = primary microglia HTS, fibrin stimulation, toxicity = cell size <150 μm2
[8] = quadrant by fibrin and LPS inhibition in HTS of 1907 compounds
[9] = primary microglia HTS, LPS stimulation, toxicity = cell size <150 μm2
[10] = 48 h, primary microglia HTS, LPS stimulation, activation = cell size >800 μm2
[11] = primary HTS, 10 μM, fibrin-stimulated primary microglia
[12] = primary HTS, 10 μM, fibrin assay, dead cells size <150 μm2
[13] = primary HTS, 10 μM, LPS assay, dead cells size <150 μm2
[14] = primary HTS, 10 μM, LPS-stimulated primary microglia
[15] = primary microglia HTS, fibrin stimulation, increased cell size (>800 μm^2) as marker of activation
[16] = primary microglia HTS, fibrin stimulation, decreased size (<150 μm^2) as marker of toxicity
[17] = primary microglia HTS, LPS stimulation, decreased size (<150 μm^2) as marker of toxicity
[18] = 48 h, primary microglia HTS, LPS stimulation, increased cell size (>800 μm^2) as marker of activation
[19] = primary microglia HTS, 10 μM, fibrin-stimulated, cell size >800 μm^2 as marker of activation
[20] = primary microglia HTS, 10 μM, fibrin assay, cell size <150 μm^2 as marker of toxicity
[21] = HTS of 1907 compounds, quadrant by fibrin and LPS inhibition
[22] = primary microglia HTS, 10 μM, LPS assay, cell size <150 μm^2 as marker of toxicity
[23] = primary microglia HTS, 10 μM, LPS-stimulated, cell size >800 μm^2 as marker of activation

SMILES: Nc1nc(F)nc2c1ncn2[C@@H]1O[C@H](COP(=O)(O)O)[C@@H](O)[C@@H]1O [Fludarabine Phosphate]
- inhibition at 10 µM [1, 6]: 1%
- Fibrin % cell toxicity (primary rat microglia [2]; [7]): 1%
- Quadrant (FIG. 5b) [3, 8]: Q4
- LPS % cell toxicity (primary rat microglia [4]; [9]): 0%
- inhibition at 10 µM [5, 10]: 11%

SMILES: CC1Cc2ccccc2N1NC(=O)c1ccc(Cl)c(S(N)(=O)=O)c1 (stereo not shown) [Indapamide]
- inhibition at 10 µM [1, 6]: -14%
- Fibrin % cell toxicity (primary rat microglia [2]; [7]): 0%
- Quadrant (FIG. 5b) [3, 8]: Q4
- LPS % cell toxicity (primary rat microglia [4]; [9]): 0%
- inhibition at 10 µM [5, 10]: 11%

SMILES: O=C([O-])C(O)[C@H](O)[C@@H](O)[C@H](O)[C@H](O)CO.O=C([O-])C(O)[C@H](O)[C@@H](O)[C@H](O)[C@H](O)CO.[Ca+2] (stereo partly shown) [Calcium Gluceptate]
- Fibrin % inhibition [1, 11]: 8%
- Fibrin % cell toxicity (primary rat microglia [2]; [12]): 1%
- Quadrant (FIG. 5b) ([3]; primary HTS, 10 μM): Q4
- LPS % cell toxicity (primary rat microglia [4]; [13]): 0%
- LPS % inhibition [5, 14]: 8%

SMILES: CC(C)Nc1ncccn1 [Isaxonine]
- inhibition at 10 µM [1, 6]: -46%
- Fibrin % cell toxicity (primary rat microglia [2]; [7]): 0%
- Quadrant (FIG. 5b) [3, 8]: Q4
- LPS % cell toxicity (primary rat microglia [4]; [9]): 0%
- inhibition at 10 µM [5, 10]: -1%

SMILES: COP(=O)(OC)C(O)C(Cl)(Cl)Cl (stereo not shown) [Metrifonate]
- inhibition at 10 µM [1, 15]: -34%
- Fibrin % cell toxicity (primary rat microglia [2]; [16]): 0%
- Quadrant (FIG. 5b) [3, 8]: Q4
- LPS % cell toxicity (primary rat microglia [4]; [17]): 0%
- inhibition at 10 µM [5, 18]: 8%

SMILES: CN1C(=O)OC(C)(C)C1=O [Trimethadione]
- inhibition at 10 µM [1, 19]: -5%
- Fibrin % cell toxicity (primary rat microglia [2]; [20]): 1%
- Quadrant (FIG. 5b) [3, 21]: Q4
- LPS % cell toxicity (primary rat microglia [4]; [22]): 0%
- inhibition at 10 µM [5, 23]: 14%

SMILES: CCCCCCNC(=O)n1cc(F)c(=O)[nH]c1=O [Carmofur]
- inhibition at 10 µM [1, 11]: -13%
- Fibrin % cell toxicity (primary rat microglia [2]; [12]): 0%
- Quadrant (FIG. 5b) ([3]; primary HTS, 10 μM): Q4
- LPS % cell toxicity (primary rat microglia [4]; [13]): 0%
- inhibition at 10 µM [5, 14]: 17%

SMILES: CC1CCc2cc(F)cc3c(=O)c(C(=O)O)cn1c23 (stereo not shown) [Flumequine]
- inhibition at 10 µM [1, 6]: -1%
- Fibrin % cell toxicity (primary rat microglia [2]; [7]): 0%
- Quadrant (FIG. 5b) [3, 8]: Q4
- LPS % cell toxicity (primary rat microglia [4]; [9]): 1%
- inhibition at 10 µM [5, 10]: 16%

SMILES: CCCc1nc(C(C)(C)O)c(C(=O)O)n1Cc1ccc(-c2ccccc2-c2nnn[nH]2)cc1 [Olmesartan]
- inhibition at 10 µM [1, 15]: -13%
- Fibrin % cell toxicity (primary rat microglia [2]; [16]): 0%
- Quadrant (FIG. 5b) [3, 8]: Q4
- LPS % cell toxicity (primary rat microglia [4]; [17]): 0%
- inhibition at 10 µM [5, 18]: 18%

SMILES: C[C@@H]1CN(c2c(F)c(F)c3c(=O)c(C(=O)O)cn(C4CC4)c3c2F)C[C@H](C)N1 [Orbifloxacin]
- inhibition at 10 µM [1, 15]: -18%
- Fibrin % cell toxicity (primary rat microglia [2]; [16]): 0%
- Quadrant (FIG. 5b) [3, 8]: Q4
- LPS % cell toxicity (primary rat microglia [4]; [17]): 0%
- inhibition at 10 µM [5, 18]: 15%

SMILES: COc1cc2c3cc1Oc1cc(ccc1O)C[C@@H]1c4c(cc(OC)c(O)c4Oc4ccc(cc4)C[C@@H]3N(C)CC2)CC[N+]1(C)C [Tubocurarine]
- inhibition at 10 µM [1, 19]: -1%
- Fibrin % cell toxicity (primary rat microglia [2]; [20]): 0%
- Quadrant (FIG. 5b) [3, 21]: Q4
- LPS % cell toxicity (primary rat microglia [4]; [22]): 0%
- inhibition at 10 µM [5, 23]: 19%

SMILES: Cc1oncc1C(=O)Nc1ccc(C(F)(F)F)cc1 [Lefunamide, Leflunomide]
- Fibrin % inhibition [1, 6]: −22%
- Fibrin % cell toxicity (primary rat microglia [2]; [7]): 0%
- Quadrant (FIG. 5b) [3, 8]: Q4
- LPS % cell toxicity (primary rat microglia [4]; [9]): 0%
- LPS % inhibition ([5]; primary microglia HTS, LPS stimulation, activation = cell size >800 μm2): 10%

SMILES: CC(C)[C@H](N)C(=O)OCCOCn1cnc2c(=O)[nH]c(N)nc21 [Valaciclovir]
- inhibition at 10 µM [1, 19]: 12%
- Fibrin % cell toxicity (primary rat microglia [2]; [20]): 1%
- Quadrant (FIG. 5b) [3, 21]: Q4
- LPS % cell toxicity (primary rat microglia [4]; [22]): 0%
- inhibition at 10 µM [5, 23]: 15%

SMILES: O=C(O)[C@H]1/C(=C/CO)O[C@@H]2CC(=O)N21 [Clavulanate]
- inhibition at 10 µM [1, 11]: -16%
- Fibrin % cell toxicity (primary rat microglia [2]; [12]): 0%
- Quadrant (FIG. 5b) ([3]; primary HTS, 10 μM): Q4
- LPS % cell toxicity (primary rat microglia [4]; [13]): 0%
- inhibition at 10 µM [5, 14]: 5%

SMILES: C=C1c2cccc(O)c2C(=O)C2=C(O)[C@]3(O)C(=O)C(C(N)=O)=C(O)[C@@H](N(C)C)[C@@H]3[C@@H](O)[C@H]12 [Methacycline]
- inhibition at 10 µM [1, 15]: -10%
- Fibrin % cell toxicity (primary rat microglia [2]; [16]): 0%
- Quadrant (FIG. 5b) [3, 8]: Q4
- LPS % cell toxicity (primary rat microglia [4]; [17]): 0%
- inhibition at 10 µM [5, 18]: 11%

SMILES: Nc1c(CC(=O)O)cccc1C(=O)c1ccc(Br)cc1 [Bromfenac]
- inhibition at 10 µM [1, 11]: -12%
- Fibrin % cell toxicity (primary rat microglia [2]; [12]): 1%
- Quadrant (FIG. 5b) ([3]; primary HTS, 10 μM): Q4
- LPS % cell toxicity (primary rat microglia [4]; [13]): 0%
- inhibition at 10 µM [5, 14]: 0%

SMILES: O=C1c2ccccc2C(=O)C1c1ccc(Br)cc1 [Bromindione]
- inhibition at 10 µM [1, 11]: 17%
- Fibrin % cell toxicity (primary rat microglia [2]; [12]): 1%
- Quadrant (FIG. 5b) ([3]; primary HTS, 10 μM): Q4
- LPS % cell toxicity (primary rat microglia [4]; [13]): 0%
- inhibition at 10 µM [5, 14]: 27%

From patent US20210330611A1, “THERAPY FOR NEUROLOGICAL DISEASES/DISORDERS” (priority 2020, published 2021)
